Measurements published in patent US11427549B2, “Pyrimidinyloxy benzo-fused compounds as herbicides” (FMC Corporation, priority 2017, dated 2022).

Assays:
corn (Zea mays) = assay: Test A postemergence, corn; type: in vivo; conditions: Zea mays, post-emergence, 240 h, 0 to 100 scale (0 no effect, 100 complete control)
[1] = tested on: pigweed (Amaranthus retroflexus); assay: Test A preemergence, pigweed; type: in vivo; conditions: Amaranthus retroflexus, pre-emergence, 240 h, 0 to 100 scale (0 no effect, 100 complete control), read-out: Plant response rating, Pigweed
[2] = tested on: wheat (Triticum aestivum); assay: Test A postemergence, wheat; type: in vivo; conditions: Triticum aestivum, post-emergence, 240 h, 0 to 100 scale (0 no effect, 100 complete control), read-out: Plant response rating, Wheat
kochia (Kochia scoparia) [3] = assay: Test A preemergence, kochia; type: in vivo; conditions: Bassia scoparia, pre-emergence, 240 h, 0 to 100 scale (0 no effect, 100 complete control), read-out: Plant response rating, Kochia
[4] = tested on: galium (catchweed bedstraw, Galium aparine); assay: Test A postemergence, galium; type: in vivo; conditions: Galium, post-emergence, 240 h, 0 to 100 scale (0 no effect, 100 complete control), read-out: Plant response rating, Galium
[5] = tested on: blackgrass (Alopecurus myosuroides); assay: Test A postemergence, blackgrass; type: in vivo; conditions: Alopecurus myosuroides, post-emergence, 240 h, 0 to 100 scale (0 no effect, 100 complete control), read-out: Plant response rating, Blackgrass
[6] = tested on: barnyardgrass (Echinochloa crus-galli); assay: Test A preemergence, barnyardgrass; type: in vivo; conditions: Echinochloa crus-galli, pre-emergence, 240 h, 0 to 100 scale (0 no effect, 100 complete control), read-out: Plant response rating, Barnyardgrass
[7] = tested on: pigweed (Amaranthus retroflexus); assay: Test A postemergence, pigweed; type: in vivo; conditions: Amaranthus retroflexus, post-emergence, 240 h, 0 to 100 scale (0 no effect, 100 complete control), read-out: Plant response rating, Pigweed
[8] = tested on: foxtail, green (green foxtail, Setaria viridis); assay: Test A postemergence, foxtail, green; type: in vivo; conditions: Setaria, post-emergence, 240 h, 0 to 100 scale (0 no effect, 100 complete control), read-out: Plant response rating, Foxtail, Green
[9] = tested on: barnyardgrass (Echinochloa crus-galli); assay: Test A postemergence, barnyardgrass; type: in vivo; conditions: Echinochloa crus-galli, post-emergence, 240 h, 0 to 100 scale (0 no effect, 100 complete control), read-out: Plant response rating, Barnyardgrass
[10] = tested on: barnyardgrass (Echinochloa crus-galli); assay: Test B flooded paddy test, barnyardgrass; conditions: Echinochloa crus-galli, read-out: Plant response rating, Barnyardgrass (0 to 100 scale, 0 is no effect, 100 is complete control)
[11] = tested on: ryegrass, Italian (Italian ryegrass, Lolium multiflorum); assay: Test A preemergence, ryegrass, Italian; type: in vivo; conditions: Lolium multiflorum, pre-emergence, 240 h, 0 to 100 scale (0 no effect, 100 complete control), read-out: Plant response rating, Ryegrass, Italian
[12] = tested on: ragweed (common ragweed, Ambrosia elatior); assay: Test A preemergence, ragweed; type: in vivo; conditions: Ambrosia artemisiifolia, pre-emergence, 240 h, 0 to 100 scale (0 no effect, 100 complete control), read-out: Plant response rating, Ragweed
rice (Oryza sativa) = assay: Test B flooded paddy test, rice; conditions: Oryza sativa, read-out: Plant response rating, Rice (0 to 100 scale, 0 is no effect, 100 is complete control)
kochia (Kochia scoparia) [13] = assay: Test A postemergence, kochia; type: in vivo; conditions: Bassia scoparia, post-emergence, 240 h, 0 to 100 scale (0 no effect, 100 complete control), read-out: Plant response rating, Kochia
[14] = tested on: ducksalad (Heteranthera limosa); assay: Test B flooded paddy test, ducksalad; conditions: Heteranthera limosa, read-out: Plant response rating, Ducksalad (0 to 100 scale, 0 is no effect, 100 is complete control)
[15] = tested on: ragweed (common ragweed, Ambrosia elatior); assay: Test A postemergence, ragweed; type: in vivo; conditions: Ambrosia artemisiifolia, post-emergence, 240 h, 0 to 100 scale (0 no effect, 100 complete control), read-out: Plant response rating, Ragweed
[16] = tested on: ryegrass, Italian (Italian ryegrass, Lolium multiflorum); assay: Test A postemergence, ryegrass, Italian; type: in vivo; conditions: Lolium multiflorum, post-emergence, 240 h, 0 to 100 scale (0 no effect, 100 complete control), read-out: Plant response rating, Ryegrass, Italian

OC1(CCC(F)(F)F)CCc2cccc(Oc3ncc(Cl)cn3)c21 (stereo not drawn) [Compound 14, 7-[(5-Chloro-2-pyrimidinyl)oxy]-2,3-dihydro-1-(3,3,3-trifluoropropyl)-1H-inden-1-ol]
50%: pest or weed control at 125 g/ha (kochia (Kochia scoparia) [3]; 125 g ai/ha) | pest or weed control at 125 g/ha ([4]; 125 g ai/ha) | pest or weed control at 125 g/ha ([7]; 125 g ai/ha) | pest or weed control at 500 g/ha ([8]; 500 g ai/ha)
60%: plant injury at 500 g/ha ([2]; 500 g ai/ha) | pest or weed control at 500 g/ha ([11]; 500 g ai/ha)
70%: pest or weed control at 500 g/ha ([12]; 500 g ai/ha) | pest or weed control at 125 g/ha ([15]; 125 g ai/ha)
20%: pest or weed control at 125 g/ha ([6]; 125 g ai/ha) | pest or weed control at 125 g/ha ([16]; 125 g ai/ha)
0%: pest or weed control at 125 g/ha ([8]; 125 g ai/ha) | pest or weed control at 250 g/ha [10] | plant injury at 250 g/ha (rice (Oryza sativa))
100%: pest or weed control at 125 g/ha ([1]; 125 g ai/ha) | pest or weed control at 500 g/ha ([1]; 500 g ai/ha) | pest or weed control at 500 g/ha (kochia (Kochia scoparia) [3]; 500 g ai/ha) | pest or weed control at 500 g/ha ([7]; 500 g ai/ha)
40%: Corn plant response rating (crop injury, 0 = no effect, 100 = complete kill) at 500 g/ha (corn (Zea mays); 500 g ai/ha) | pest or weed control at 125 g/ha ([5]; 125 g ai/ha) | pest or weed control at 125 g/ha ([12]; 125 g ai/ha) | pest or weed control at 250 g/ha [14]
90%: pest or weed control at 500 g/ha ([4]; 500 g ai/ha) | pest or weed control at 500 g/ha ([5]; 500 g ai/ha) | pest or weed control at 500 g/ha ([6]; 500 g ai/ha) | pest or weed control at 500 g/ha ([15]; 500 g ai/ha) | pest or weed control at 500 g/ha ([16]; 500 g ai/ha)
80%: pest or weed control at 500 g/ha ([9]; 500 g ai/ha) | pest or weed control at 125 g/ha (kochia (Kochia scoparia) [13]; 125 g ai/ha) | pest or weed control at 500 g/ha (kochia (Kochia scoparia) [13]; 500 g ai/ha)
10%: Corn plant response rating (crop injury, 0 = no effect, 100 = complete kill) at 125 g/ha (corn (Zea mays); 125 g ai/ha) | pest or weed control at 125 g/ha ([11]; 125 g ai/ha)
30%: plant injury at 125 g/ha ([2]; 125 g ai/ha) | pest or weed control at 125 g/ha ([9]; 125 g ai/ha)
